“Also recorded” adds a separate entry of the source.
Experiments:
[1] = test system: HIF-1α; test: Immunoblot for HIF-1α in gastrocnemius of NMN-treated mice; type: in vivo
Method: (§1) C57BL/6J mice of 3, 6, 22, 24, or 30 months of age were obtained from the National Institutes of Aging mouse aging colony. Mice were acclimated for at least one-week prior to sacrifice. 3, and 24-month-old mice were given interperitoneal (IP) injections of 500 mg NMN/kg body weight per day or the equivalent volume of PBS for 7 consecutive days at 5:00 pm and 7:00 am on day 8 and sacrificed 4 hr after last injection. All animal studies followed the guidelines of and were approved by the Harvard Institutional Animal Care and Use Committee
C57BL/6J mice of 6, 22, or 30 months of age were obtained from the National Institutes of Aging mouse aging colony. Additionally 22 months old caloric restricted mice were also obtained from the National Institutes of Aging mouse aging colony. […]
Protein extracts from tissue or C2C12 cells were obtained by lysis in ice-cold lysis buffer (150 mM NaCl, 10 mM Tris HCl (pH 7.4), 1 mM EDTA, 1 mM EGTA, 1% Triton X-100, 0.5% NP-40) supplemented with a cocktail of protease and phosphatase inhibitors (Roche). Protein content was determined by the Bradford protein assay (Biorad), and 50 μg proteins were run on SDS-PAGE under reducing conditions. […] The immunostaining was detected using horseradish peroxidase-conjugated anti-rabbit or anti-mouse immunoglobulin for 1 h at room temperature. […]

[2] = test system: primary myoblasts; test: qPCR of mitochondrial-encoded genes in primary myoblasts with NMNAT1 knockdown; type: cell-based, mice; conditions: knockdown of NMNAT1, NMN
Method: Primary myoblasts cells were isolated from WT, SIRT1 KO (Price et al., 2012) and PGC-1α/β KO (Zechner et al., 2010) mice as previously described (Price et al., 2012). WT and PGC-1α/β KO primary myoblasts were plated and allowed to differentiate into myotubes by replacing the media with low glucose DMEM supplemented with 2% horse serum (Sigma-Aldrich) for 4 days. After the differentiation the cells were infected with empty vector or flag-SIRT1 adenovirus as described before (Gerhart-Hines et al., 2007). Media was replaced with fresh DMEM supplemented with 2% horse serum (Sigma-Aldrich) for an additional 48 hr and, after that the cells were harvested for the different assays as described. […]
RNA from skeletal muscle tissue and C2C12 cells were extracted with RNeasy mini kit (Qiagen) according to the instructions and quantified using the NanoDrop 1000 spectrophotometer (Thermo Scientific). cDNA was synthesized with the iSCRIP cDNA synthesis kit (BioRad) using 600 ng of RNA. Quantitative RT-PCR reactions were performed using 1 μM of primers and LightCycler® 480 SYBR Green Master (Roche) on an LightCycler® 480 detection system (Roche). […]

[3] = test system: Atrogin-1 and MuRF1; test: Immunoblot for muscle wasting markers in gastrocnemius; type: in vivo; conditions: skeletal muscle of old (22-month-old) mice; NMN
Excerpt: (§2) C57BL/6J mice of 6, 22, or 30 months of age were obtained from the National Institutes of Aging mouse aging colony. Additionally 22 months old caloric restricted mice were also obtained from the National Institutes of Aging mouse aging colony. EGLN1 KO, SIRT1 KO and SIRT1 OE mice were generated as previously described (Minamishima et al., 2008; Price et al., 2012). Mice were acclimated for at least one-week prior to sacrifice. 3, 6, 22 and 24-month-old mice were given interperitoneal (IP) injections of 500 mg NMN/kg body weight per day or the equivalent volume of PBS for 7 consecutive days at 5:00 pm and 7:00 am on day 8 and sacrificed 4 hr after last injection.
Protein extracts from tissue or C2C12 cells were obtained by lysis in ice-cold lysis buffer (150 mM NaCl, 10 mM Tris HCl (pH 7.4), 1 mM EDTA, 1 mM EGTA, 1% Triton X-100, 0.5% NP-40) supplemented with a cocktail of protease and phosphatase inhibitors (Roche). Protein content was determined by the Bradford protein assay (Biorad), and 50 μg proteins were run on SDS-PAGE under reducing conditions. The separated proteins were then electrophoretically transferred to a polyvinylidene difluoride membrane (Perkin-Elmer). […] The immunostaining was detected using horseradish peroxidase-conjugated anti-rabbit or anti-mouse immunoglobulin for 1 h at room temperature.

[4] = test system: NAD+ levels; test: NAD+ measurement in skeletal muscle of NMN-treated mice; type: in vivo, C57BL/6J mice; conditions: for levels of cellular NAD+: young and old
Method: as §1
NAD^+ from C2C12 cells and skeletal muscle was quantified with a commercially available kit (BioVision) according to the manufacturer's instructions and as described before (Gomes et al., Biochim. Biophys. Acta. 1822:185-195 (2012)).
as §2
NAD^+ from skeletal muscle was quantified with a commercially available kit (BioVision) according to the manufacturer's instructions and as described before (Gomes et al., 2012).
C57BL/6J mice of 3, 6, 22, or 24 months of age were obtained from the National Institutes of Aging mouse aging colony. Mice were acclimated for at least one-week prior to sacrifice. […]
NAD^+ from C2C12 cells and skeletal muscle was quantified with a commercially available kit (BioVision) according to the manufacturer's instructions and as described before (Gomes et al., 2012).

[5] = Lactate levels in skeletal muscle of NMN-treated mice; type: in vivo; conditions: 22-month-old mice; NMN one week
Excerpt: as §2

NC(=O)c1ccc[n+]([C@@H]2O[C@H](COP(=O)([O-])O)[C@@H](O)[C@H]2O)c1 [NMN, nicotinamide mononucleotide]
HIF-1α protein ([1]; 22-month-old mice, gastrocnemius, NMN IP 500 mg/kg/day, 7 days, 500 mg/kg/day): reversed the age-induced decline in VHL and consequent accumulation of HIF-1α; also recorded: destabilizes HIF-1alpha in the skeletal muscle of old animals | HIF-1α in muscle ([1]; 24-month-old mice, NMN 500 mg/kg IP, one week): reversed the age-induced increase in HIF-1α in muscle | expression of mitochondrial-encoded genes [2]: completely abolishes the ability of NMN to induce the expression of mitochondrial-encoded genes | muscle wasting markers Atrogin-1 and MuRF1 [3]: completely reversed | levels of cellular NAD+ ([4]; 3- and 24-month-old C57BL/6J mice, NMN 500 mg/kg IP, one week, treated vs untreated): approximately 2 fold | levels of cellular NAD+ ([4]; 6- and 22-month-old C57BL/6J mice, NMN one week): 2 fold | NAD+ levels in the skeletal muscle of old mice ([4]; gastrocnemius, 3- and 24-month-old C57BL6J mice, NMN IP 500 mg/kg/day, 7 days, colorimetric NAD+ assay): increases NAD+ levels | lactate levels in the skeletal muscle [5]: suppressed the increase in lactate levels
